Data: US8932597B2 (priority 2008, dated 2015)

Legend:
2N9 control antibody = type: binding
mAb 8i10 = type: binding, human
mAb 23K12 = type: binding, human
14C2 antibody = type: binding
HuM2e antibody 23K12 = type: binding, human
HuM2e antibody 8I10 = type: binding, human
[1] = tested on: anti-M2 human monoclonal antibody Z3G1; type: binding

Row | Substance | Binding activity to truncated M2 peptides, ELISA absorbance at 450 nm, 2N9 (2N9 control antibody) | Binding activity to truncated M2 peptides, ELISA absorbance at 450 nm, 8i10 (mAb 8i10) | Signal (peptides that show specific binding to Z3G1) [1] | Signal (peptides that bind to 23K21 and 8I10) (HuM2e antibody 23K12) | also measured
1 | VETPIRNEWGCR [M12] | 0.09 | 0.09 | – | – | Binding activity to truncated M2 peptides, ELISA absorbance at 450 nm, 23K12 (mAb 23K12): 0.20; Binding activity to truncated M2 peptides, ELISA absorbance at 450 nm, 14C2 (14C2 antibody): 0.15
2 | SLLTEVETPIRNEWGCRCNDSSD [M2] | 0.06 | 0.11 | – | – | Binding activity to truncated M2 peptides, ELISA absorbance at 450 nm, 23K12 (mAb 23K12): 0.22; Binding activity to truncated M2 peptides, ELISA absorbance at 450 nm, 14C2 (14C2 antibody): 3.85
3 | SLLTEVETPI [NM10] | 0.10 | 0.10 | – | – | Binding activity to truncated M2 peptides, ELISA absorbance at 450 nm, 23K12 (mAb 23K12): 0.24; Binding activity to truncated M2 peptides, ELISA absorbance at 450 nm, 14C2 (14C2 antibody): 0.17
4 | SLLTEVETPIRN [NM12] | 0.09 | 0.10 | – | – | Binding activity to truncated M2 peptides, ELISA absorbance at 450 nm, 23K12 (mAb 23K12): 0.24; Binding activity to truncated M2 peptides, ELISA absorbance at 450 nm, 14C2 (14C2 antibody): 0.20
5 | SLLTEVETP [NM9] | 0.19 | 0.12 | – | – | –
6 | TPIRNEWGCRCNDSSD [CM16] | 0.12 | 0.13 | – | – | Binding activity to truncated M2 peptides, ELISA absorbance at 450 nm, 23K12 (mAb 23K12): 0.35; Binding activity to truncated M2 peptides, ELISA absorbance at 450 nm, 14C2 (14C2 antibody): 0.23
7 | IRNEWGCRCNDSSD [CM14] | 0.13 | 0.14 | – | – | Binding activity to truncated M2 peptides, ELISA absorbance at 450 nm, 23K12 (mAb 23K12): 0.36; Binding activity to truncated M2 peptides, ELISA absorbance at 450 nm, 14C2 (14C2 antibody): 0.23
8 | PIRNEWGCRCNDSSD [CM15] | 0.11 | 0.12 | – | – | –
9 | CSLLTECGSLLTCV (epitope peptide) [SEQ ID NO: 463] | – | – | – | – | Binding to 23K12 (in words) (HuM2e antibody 23K12): very best specific binder; Binding to 8I10 (in words) (HuM2e antibody 8I10): very best specific binder
10 | ETPIRNEWGCRCNDSSD [CM17] | 0.11 | 0.11 | – | – | –
11 | SLLTEVET [NM8] | 0.09 | 0.10 | – | – | Binding activity to truncated M2 peptides, ELISA absorbance at 450 nm, 23K12 (mAb 23K12): 0.20; Binding activity to truncated M2 peptides, ELISA absorbance at 450 nm, 14C2 (14C2 antibody): 0.15
12 | NEWGCRCNDSSD [CM12] | 0.14 | 0.14 | – | – | Binding activity to truncated M2 peptides, ELISA absorbance at 450 nm, 23K12 (mAb 23K12): 0.39; Binding activity to truncated M2 peptides, ELISA absorbance at 450 nm, 14C2 (14C2 antibody): 0.27
13 | SLLTEVETPIRNEWGC [NM16] | 0.09 | 0.29 | – | – | Binding activity to truncated M2 peptides, ELISA absorbance at 450 nm, 23K12 (mAb 23K12): 0.62; Binding activity to truncated M2 peptides, ELISA absorbance at 450 nm, 14C2 (14C2 antibody): 3.90
14 | SLLTEVETPIRNEW [NM14] | 0.09 | 0.11 | – | – | –
15 | SLLTEVETPIRNEWG [NM15] | 0.11 | 0.12 | – | – | –
16 | LLTEVETPIRNEWGCR [M16] | 0.09 | 0.09 | – | – | Binding activity to truncated M2 peptides, ELISA absorbance at 450 nm, 23K12 (mAb 23K12): 0.21; Binding activity to truncated M2 peptides, ELISA absorbance at 450 nm, 14C2 (14C2 antibody): 3.94
17 | MSLLTEVETPIRNEWGCRCNDSSD [M2e] | 0.10 | 0.13 | – | – | Binding activity to truncated M2 peptides, ELISA absorbance at 450 nm, 23K12 (mAb 23K12): 0.43; Binding activity to truncated M2 peptides, ELISA absorbance at 450 nm, 14C2 (14C2 antibody): 3.98
18 | SLLTEVE [NM7] | 0.08 | 0.10 | – | – | Binding activity to truncated M2 peptides, ELISA absorbance at 450 nm, 23K12 (mAb 23K12): 0.20; Binding activity to truncated M2 peptides, ELISA absorbance at 450 nm, 14C2 (14C2 antibody): 0.14
19 | RNEWGCRCNDSSD [CM13] | 0.13 | 0.14 | – | – | –
20 | SLLTEVETPIRNEWGCR [NM17] | 0.10 | 0.26 | – | – | Binding activity to truncated M2 peptides, ELISA absorbance at 450 nm, 23K12 (mAb 23K12): 0.58; Binding activity to truncated M2 peptides, ELISA absorbance at 450 nm, 14C2 (14C2 antibody): 3.99
21 | SLLTEVETPIRNE [NM13] | 0.10 | 0.11 | – | – | –
22 | SLLTEVETPIR [NM11] | 0.12 | 0.13 | – | – | Binding activity to truncated M2 peptides, ELISA absorbance at 450 nm, 23K12 (mAb 23K12): 0.30; Binding activity to truncated M2 peptides, ELISA absorbance at 450 nm, 14C2 (14C2 antibody): 0.21
23 | 264 (CSLLTEVETCVETPIRNEWGSRSNDC; epitope peptide) [compound 264] | – | – | 2374 | 707 | –
24 | 577 (SLLTEVETPIRNIWGCRCNDSSD; epitope peptide) [compound 577] | – | – | 2490 | 862 | –
25 | 711 (CSLLTEVGSLCTEV; epitope peptide) [compound 711] | – | – | 2409 | 707 | –
26 | 436 (SLLTEVETPI; epitope peptide) [compound 436] | – | – | – | 1084 | Signal (peptides that bind to Z3G1) [1]: 2465

Row | Substance | Binding activity to truncated M2 peptides, ELISA absorbance at 450 nm, 2N9 (2N9 control antibody) | Binding activity to truncated M2 peptides, ELISA absorbance at 450 nm, 8i10 (mAb 8i10) | Signal (peptides that show specific binding to Z3G1) [1] | Signal (peptides that bind to 23K21 and 8I10) (HuM2e antibody 23K12) | also measured
27 | 366 (SLLTEVETPIRNEWWCRCNDSSD; epitope peptide) [compound 366] | – | – | 2406 | 1498 | –
28 | 587 (SLLTEVETPIRCEWGCRCNDSSD; epitope peptide) [compound 587] | – | – | 1956 | 850 | –
29 | 697 (SLLTEVETPIRNEWGCRINDSSD; epitope peptide) [compound 697] | – | – | 2409 | 718 | –
30 | 370 (SLLTEVETPIRNEWGERCNDSSD; epitope peptide) [compound 370] | – | – | 2286 | 1474 | –
31 | 532 (MSCLTEVGMSLLTEV; epitope peptide) [compound 532] | – | – | – | 968 | Signal (peptides that bind to Z3G1) [1]: 2336
32 | 414 (SLLTEVETPIRNEWGCRCNDQSD; epitope peptide) [compound 414] | – | – | – | 739 | Signal (peptides that bind to Z3G1) [1]: 2349
33 | 324 (SLCTEVGSLLTEV; epitope peptide) [compound 324] | – | – | 1780 | 1772 | –
34 | 646 (SLLTEVEGPIRNEWGCRCNDSSD; epitope peptide) [compound 646] | – | – | 2341 | 763 | –
35 | 700 (SLLTEVETSIRNEWGCRCNDSSD; epitope peptide) [compound 700] | – | – | 2151 | 715 | –
36 | 513 (MCLLTEVGMSLLTEV; epitope peptide) [compound 513] | – | – | – | 1032 | Signal (peptides that bind to Z3G1) [1]: 2697
37 | 423 (SLLTEVETPIRNEWGCRCNDSHD; epitope peptide) [compound 423] | – | – | – | 782 | Signal (peptides that bind to Z3G1) [1]: 2353
38 | 343 (MSLLTEVGMSLLTEC; epitope peptide) [compound 343] | – | – | – | 1630 | Signal (peptides that bind to Z3G1) [1]: 2831
39 | SLLTEVGSLLTEV (epitope peptide) [SEQ ID NO: 320] | – | – | – | – | Binding to Z3G1 (in words) [1]: recognized; Binding to 23K12 (in words) (HuM2e antibody 23K12): best 23k12 binder
40 | 573 (SLLTEVETPIRNEWGCRTNDSSD; epitope peptide) [compound 573] | – | – | 2374 | 867 | –
41 | 351 (SLLCEVGSLLTEC; epitope peptide) [compound 351] | – | – | 2438 | 1564 | –
42 | 581 (SLLTEVETYIRNEWGCRCNDSSD; epitope peptide) [compound 581] | – | – | 2290 | 857 | –
43 | LTEVETPIRNEWGCR [M15] | 0.09 | 0.09 | – | – | –
44 | 302 (ASLLTEVGSCLTEV; epitope sequence) [compound 302] | – | – | 2770 | 1944 | –
45 | 535 (SLLTEVETPIRNEWGCRCNFSSD; epitope peptide) [compound 535] | – | – | – | 963 | Signal (peptides that bind to Z3G1) [1]: 2509
46 | 664 (SLLTEVETPIRNEWGNRCNDSSD; epitope peptide) [compound 664] | – | – | 2328 | 746 | –
47 | 618 (SLLTEVETPIRNEWGCRCLDSSD; epitope peptide) [compound 618] | – | – | – | 807 | Signal (peptides that bind to Z3G1) [1]: 2480
48 | 418 (SLLTEVETPIRNEWGCRCNDWSD; epitope peptide) [compound 418] | – | – | – | 929 | Signal (peptides that bind to Z3G1) [1]: 2491
49 | 477 (SLLTECGSLLCEV; epitope peptide) [compound 477] | – | – | 2403 | 1206 | –
50 | 500 (SCLTEVGSLLTEV; epitope peptide) [compound 500] | – | – | 1610 | 1066 | –
51 | 583 (SLLTEVWTPIRNEWGCRCNDSSD; epitope peptide) [compound 583] | – | – | 1889 | 855 | –
